This note sets out measurements from EP4567031A1, “HPK1 INHIBITOR, PREPARATION METHOD THEREFOR, AND USE THEREOF” (Beijing Earthwise Technology Co., Ltd., priority 2022, dated 2024).

pEC50: −log10 of the molar value.

One assay relates to human Pan T cells. Kind of assay: Human Pan T cell IL-2 ELISA. The assay is classed as cell-based. The conditions noted are these: Anti-CD3 and Anti-CD28, 48 hours, supernatant IL-2 ELISA, read-out: IL-2 release, EC50. As to the method:
A compound was dissolved in DMSO to 10 mM, and then diluted three-fold with DMSO to 9 dosages in a 96-well plate. Then, 10 µL of the diluted compound sample was transferred to a 96-well plate with 90 µL of cell culture medium, and the plate was shaken for 5 minutes. Then, 5 µL of the diluted compound sample was transferred to a 96-well plate with 120 µL of cell culture medium, and the plate was shaken for 5 minutes. According to the experimental design diagram, 50 µL of the diluted compound sample was transferred to a cell plate. Final concentrations of the compound in this assay were 10000.00, 5000, 2500, 1250, 625, 312.5, 156.25, 78.125 and 39.063 nM.
The assay was conducted in a 96-well plate. On the first day of the assay, Anti-CD3 was added to the 96-well plate and incubated in a 4 °C refrigerator overnight. On the second day of the assay, human Pan T cells were recovered, centrifuged and counted. The cell density was adjusted to 1*10^6 cells/ml. Then, 100 µL of cells were added to the 96-well plate washed with PBS and added with Anti-CD3; according to the experimental design diagram, 50 µL of diluted Anti-CD28 and 50 µL of the diluted compound were added to each well, centrifuged, and the cell plate was placed and incubated in an incubator for 48 hours; after 48 hours, the plate was centrifuged and the supernatant was collected for IL-2 ELISA.
The signal value of light absorption was converted into a multiple. Multiple = sample value/the average value of control wells. The average value of control wells refers to the value measured in wells with DMSO added. EC50 values were calculated by XLFit (version 5.3.1.3) in Excel. Equation: Y=Bottom + (Top-Bottom) / (1 + (EC50/X) ^ HillSlope). Table 6. Results of cellular activity of the compounds
On the technique in general: In an ELISA, binding on a coated surface is turned into a signal by an enzyme label.
On to `CCC1(C)c2cc(N3CCOCC3)ccc2Nc2c1cc(-c1cnc3c(OC)nccn13)c1c2C(=O)NC1` (single isomer, unassigned) [Example 213], for which the pEC50 (in general, −log10 of the EC50, conventionally taken in molar units) is 7.72.

The same assay, now with this note: Homo sapiens, T-cell, 48 h, Anti-CD3 and Anti-CD28, supernatant IL-2 ELISA, read-out: IL-2 release, EC50.
Regarding `COc1nccn2c(-c3cc4c(c5c3CNC5=O)Nc3ccc(N5CCOCC5C)cc3C4(C)C)cnc12` (single isomer, unassigned) [Example 244], the pEC50 was 8.01.

On to `COc1ccn2c(-c3cc4c(c5c3CNC5=O)Nc3ccc(N5CCOCC5)cc3C4(C)C)cnc2c1` [Example 186], for which the pEC50 is 8.10.

Take `CC1(C)c2cc(N3CCOC(C(C)(C)O)C3)ccc2Nc2c1cc(-c1cnc3cnccn13)c1c2C(=O)NC1` (stereo not shown) [Example 112]: the pEC50 was 8.33.

`COC1CCCc2c(-c3cc4c(c5c3CNC5=O)Nc3ccc(N5CCOCC5)cc3C4(C)C)cnn21` (single isomer, unassigned) [Example 177]: the pEC50 was 7.60.

On to `CC1(C)c2cc(N3CCOCC3)ccc2Nc2c1cc(-c1cnc3c(C(F)F)nccn13)c1c2C(=O)NC1` [Example 222], for which the pEC50 is 8.19.

Turning to `CC1(C)c2cc(N3CCOCC3)ccc2Nc2c1cc(-c1cnc3c(OC(F)F)nccn13)c1c2C(=O)NC1` [Example 172], the pEC50 was 8.09.

For the compound `COC1CCCn2c(-c3cc4c(c5c3CNC5=O)Nc3c(F)cc(N5CCOCC5)cc3C4(C)C)cnc21` (single isomer, unassigned) [Example 178], the pEC50 was 7.72.

Turning to `COCC1(O)CCN(c2ccc3c(c2)C(C)(C)c2cc(-c4cnc5n4CCCC5OC)c4c(c2N3)C(=O)NC4)CC1` (single isomer, unassigned) [Example 231], the pEC50 was 7.98.

On to `CCOc1ccc2c(-c3cc4c(c5c3CNC5=O)Nc3ccc(N5CCOC(C(C)(C)O)C5)cc3C4(C)C)cnn2c1` (single isomer, unassigned) [Example 151], for which the pEC50 was 7.16.

As to `CC1(C)c2cc(N3CCOCC3)ccc2Nc2c1cc(-c1cnc3ncccn13)c1c2C(=O)NC1` [Example 250], the pEC50 was 8.51.

Turning to `Cn1cnc2c(-c3cc4c(c5c3CNC5=O)Nc3ccc(N5CCOCC5)cc3C4(C)C)cncc21` [Example 248], the pEC50 is 8.72.

For `CC1(C)c2cc(N3CCOCC3)ccc2Nc2c1cc(-c1cnc3n1CCCC3O)c1c2C(=O)NC1` (single isomer, unassigned) [Example 227], the pEC50 was 8.19.

On to `CC1(C)c2cc(N3CCOC(C(C)(C)O)C3)ccc2Nc2c1cc(-c1cnc3cc(Cl)ccn13)c1c2C(=O)NC1` (single isomer, unassigned) [Example 125], for which the pEC50 is 8.14.

With `CC1(C)c2cc(N3CCOC(C(C)(C)O)C3)ccc2Nc2c1cc(-c1cnc3cc(F)ccn13)c1c2C(=O)NC1` (single isomer, unassigned) [Example 93], the pEC50 was 8.20.

Take `COc1ccn2c(-c3cc4c(c5c3CNC5=O)Nc3ccc(N5CCOCC5)cc3C4(C)C)cnc2c1F` [Example 225]: the pEC50 is 8.09.

As for `CCc1ncc(-c2cc3c(c4c2CNC4=O)Nc2ccc(N4CCOC(C(C)(C)O)C4)cc2C3(C)C)n1C` (single isomer, unassigned) [Example 134], the pEC50 is 7.71.

With `CN(C)C(=O)c1ccc2c(c1)C(C)(C)c1cc(-c3cnc4nc(C(F)F)ccn34)c3c(c1N2)C(=O)NC3` [Example 257], the pEC50 is 6.81.

Take `COC1CCCn2c(-c3cc4c(c5c3CNC5=O)Nc3cc(C)c(N5CCOCC5)cc3C4(C)C)cnc21` (single isomer, unassigned) [Example 150]: the pEC50 was 7.51.

With `CC1(C)c2cc(N3CCOCC3)ccc2Nc2c1cc(-c1cnc3n1CCC(O)C3)c1c2C(=O)NC1` (single isomer, unassigned) [Example 241], the pEC50 is 8.00.

Regarding `CC1(C)c2cc(N3CCOC(C(C)(C)O)C3)ccc2Nc2c1cc(-c1cnc3n1CCCCC3)c1c2C(=O)NC1` (stereo not shown) [Example 123], the pEC50 is 7.69.

As to `CC1(C)c2cc(N3CCO[C@@H](C(C)(C)O)C3)ccc2Nc2c1cc(-c1cnc3c(F)c(C#N)ccn13)c1c2C(=O)NC1` [Example 179], the pEC50 was 8.16.
